For data set [1] the following is noted: reported, Liu et al. 1998; cited from earlier work.
Another data set relates to hepatitis B virus (HBV). The settings on record: reported, Liu et al. 1998; cited from earlier work.
Another data set relates to Epstein-Barr virus. Particulars: reported, Liu et al. 1998; cited from earlier work.
Data set [2] has as its system human immunodeficiency virus. Particulars: reported, Liu et al. 1998; cited from earlier work.
In data set [3] the test system is H441 (rapidly growing) human NSCLC tumor xenografts. Kind of data set: microPET imaging of tumor proliferative activity, H441 NSCLC xenografts. Type of data set: in vivo, nude mice. The settings on record: 3.7 MBq via tail vein, 2 h post-injection. As to the method: (§1) All radiotracers were synthesized following literature methods. Two human NSCLC cell lines, H441 (rapidly growing) and H3255 (slow growing) were used to grow (s.c.) tumor xenografts in nude mice. Eight nu/nu mice were injected with 3×10^6 cells (H3255) onto right shoulder, and 3 weeks later, 3×10^6 cells (H441) were injected onto opposite shoulder. When tumors grew approximately 1 cm in diameter, PET imaging with [^18F]-FLT, [^18F]-D-FMAU [^18F]-L-FMAU were performed on three consecutive days. Each animal received 3.7 MBq of radiotracer via the tail vein, then dynamic scan was performed using micro-PET up to 2 hours of post-injection.
(§2) Tumor uptake and tumor-to-muscle (T/M) ratios of [^18F]-FLT, [^18F]-D-FMAU and [^18F]L-FMAU for different tumors are summarized in Table 1. […] On the other hand, tumor-to muscle ratio of [^18F]-FLT accumulation was higher than that for [^18F]-D-FMAU and [^18F]-L-FMAU.

In data set [4] the test system is H3255 (slow growing) human NSCLC tumor xenografts. Kind of data set: microPET imaging of tumor proliferative activity, H3255 NSCLC xenografts. Format: in vivo, nude mice. The settings on record: 3.7 MBq via tail vein, 2 h post-injection. As to the method:
as §1, §2

Data set [5] concerns Colo205 human colon cancer tumor xenografts. The data set is described as follows: micro-PET imaging of tumor proliferative activity, Colo205 colon cancer xenografts. Type of data set: in vivo, nude mice. The settings on record: 3.7 MBq via tail vein, 2 h post-injection. As to the method: The radiotracers, [^18F]-FLT, [^18F]-D-FMAU and [^18F]-L-FMAU, were synthesized according literature methods in high specific activity. Human colon cancer cells, Colo205 were used to grow tumor xenografts in nude mice. Four nu/nu mice were injected (s.c.) with 3×10^6 cells onto the shoulder. When tumors were approximately 1 cm in diameter, PET imaging with [^18F]-FLT, [^18F]-D-FMAU [^18F]-L-FMAU were performed on three consecutive days using one tracer at a time. Each animal received 3.7 MBq of radiotracer via the tail vein, then dynamic imaging was performed using micro-PET up to 2 hours of post-injection.
However, tumor-to muscle ratio of [^18F]-FLT accumulation was lower than that of [^18F]-D-FMAU and [^18F]-L-FMAU. [^18F]-L-FMAU had higher uptake and tumor/muscle ratio compared to the D-[^18F]-FMAU, which is probably due to higher resistance to metabolic degradation.

In the case of `Cc1cn([C@H]2O[C@@H](CO)[C@H](O)[C@H]2F)c(=O)[nH]c1=O` [L-FMAU, 2′-Deoxy-2′-fluoro-5-methyl-1-β-L-arabinofuranosyl-uracil], the cytotoxicity entry in data set [1] is reported as “low cytotoxicity”. In addition, the “antiviral activity against hepatitis B virus” value in the data set on hepatitis B virus (HBV) is given as “potential antiviral activities”. In addition, the “antiviral activity against Epstein-Barr virus” value in the data set on Epstein-Barr virus was “potential antiviral activities”. In addition, the “antiviral activity against human immunodeficiency virus” value in data set [2] is recorded as “not human immunodeficiency virus”.
For the compound `Cc1cn([C@@H]2O[C@H](CO)[C@@H](O)[C@@H]2[18F])c(=O)[nH]c1=O` [[^18F]-D-FMAU], the “Tumor uptake % ID/g” value in data set [3] was determined as 7.74 ± 1.39 % ID/g; in data set [4] it was 4.49 ± 1.08 % ID/g; in data set [5], 2.37 ± 0.58 % ID/g. Also, the “tumor-to-muscle (T/M) ratio” value is recorded as 3.37 ± 1.19 in data set [3], 1.96 ± 0.74 in data set [4] and 1.95 ± 0.37 in data set [5].
Turning to `Cc1cn([C@H]2C[C@H]([18F])[C@@H](CO)O2)c(=O)[nH]c1=O` [[^18F]-FLT, [^18F]-3′-deoxy-3′-fluorothymidine], the “Tumor uptake % ID/g” value in data set [3] is 5.10 ± 1.45 % ID/g; in data set [4] it was 0.57 ± 0.33 % ID/g; in data set [5], 5.20 ± 1.32 % ID/g. For the same compound, the “tumor-to-muscle (T/M) ratio” value in data set [3] turned out to be 12.94 ± 4.38; in data set [4], 1.50 ± 0.90; in data set [5], 1.51 ± 0.61.
`Cc1cn([C@H]2O[C@@H](CO)[C@H](O)[C@H]2[18F])c(=O)[nH]c1=O` [[^18F]-L-FMAU, 2′ deoxy-2′-[^18F]-fluoro-5-methyl-1-β-L-arabinofuranosyluracil]: the “Tumor uptake % ID/g” value in data set [3] is 3.13 ± 1.11 % ID/g; in data set [4], 1.38 ± 0.81 % ID/g; in data set [5], 2.93 ± 0.75 % ID/g. The entries for the “tumor-to-muscle (T/M) ratio” value in data set [3], in data set [4] and in data set [5] were 4.15 ± 1.82, 1.62 ± 0.50 and 2.85 ± 0.89, respectively.
